Patent publication US10336717B2, “Inhibitors of beta-secretase” (Vitae Pharmaceuticals, Inc., priority 2009, dated 2019)

Experiments:
[1] = target: truncated human beta-secretase (residues 1-458, His6-tagged) (Homo sapiens (Human), UniProt P56817); assay: BACE enzyme assay (fluorescence quench, Example 434A); type: biochemical
[2] = target: BACE (Homo sapiens (Human), UniProt P56817); assay: BACE cell assay: secreted Aβ 1-40 in H4-APPsw cells (AlphaLISA/ELISA, Example 434B); type: cell-based; conditions: in vitro cell activity, Aβ 1-40 in culture media after overnight treatment
Sequence of BACE (P56817 46-501 limits assumed): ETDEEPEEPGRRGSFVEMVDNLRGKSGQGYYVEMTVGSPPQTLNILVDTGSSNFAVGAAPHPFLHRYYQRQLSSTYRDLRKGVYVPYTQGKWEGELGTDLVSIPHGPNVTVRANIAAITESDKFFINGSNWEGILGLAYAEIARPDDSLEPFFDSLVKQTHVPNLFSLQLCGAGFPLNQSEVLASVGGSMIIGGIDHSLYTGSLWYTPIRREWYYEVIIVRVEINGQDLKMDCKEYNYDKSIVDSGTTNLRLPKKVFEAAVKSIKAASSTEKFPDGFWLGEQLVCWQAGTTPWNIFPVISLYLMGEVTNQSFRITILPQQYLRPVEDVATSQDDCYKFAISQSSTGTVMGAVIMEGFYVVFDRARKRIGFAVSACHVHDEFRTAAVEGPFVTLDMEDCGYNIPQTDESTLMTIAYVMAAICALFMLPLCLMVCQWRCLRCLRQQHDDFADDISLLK

Sequence of truncated human beta-secretase (residues 1-458, His6-tagged) (P56817 22-458): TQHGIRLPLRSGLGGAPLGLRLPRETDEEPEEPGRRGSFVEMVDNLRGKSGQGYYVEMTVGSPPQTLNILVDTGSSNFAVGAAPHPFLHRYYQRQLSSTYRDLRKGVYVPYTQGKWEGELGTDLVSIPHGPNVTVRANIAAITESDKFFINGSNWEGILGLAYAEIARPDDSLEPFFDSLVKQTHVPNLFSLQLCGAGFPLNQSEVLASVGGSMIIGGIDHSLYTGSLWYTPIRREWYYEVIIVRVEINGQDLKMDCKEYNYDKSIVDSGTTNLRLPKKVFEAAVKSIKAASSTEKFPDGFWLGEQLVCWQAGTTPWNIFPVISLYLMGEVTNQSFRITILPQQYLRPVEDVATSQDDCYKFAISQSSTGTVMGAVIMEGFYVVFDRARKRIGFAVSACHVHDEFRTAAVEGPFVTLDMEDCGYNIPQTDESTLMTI

| IC50 [2] [nM] | Structure (SMILES) | IC50 [1] [nM] |
| --- | --- | --- |
| – | CN1OC2(N=C1N)c1ccccc1CC21CCc2ccccc2CC1 (centres unmarked) [Compound 35] | 105 |
| < 1000 | CCOC1CCC2(CC1)Cc1ccc(-c3cccc(C#N)c3)cc1C21N=C(N)N(C)O1 (centres unmarked) [Compound 49] | – |
